Measurements as given in patent publication US20260263459A1, “PHTHALAZINONE GSPT1 PROTEIN DEGRADING AGENT AND USE THEREOF” (CHINA PHARMACEUTICAL UNIVERSITY, priority 2023, published 2026).

Key:
GSPT1 protein = molecular target: T1, GSPT1 protein (Homo sapiens, UniProt P15170+Q96SW2); test: Degradation of GSPT1 in KG-1 cells (Western blot); format: cell-based; settings: compound concentration 200 nM, 4 h incubation
T1 construct: Whole cell lysates were prepared; endogenous in cells; host or cells: KG-1 cells
T1 sequence (P15170 whole entry): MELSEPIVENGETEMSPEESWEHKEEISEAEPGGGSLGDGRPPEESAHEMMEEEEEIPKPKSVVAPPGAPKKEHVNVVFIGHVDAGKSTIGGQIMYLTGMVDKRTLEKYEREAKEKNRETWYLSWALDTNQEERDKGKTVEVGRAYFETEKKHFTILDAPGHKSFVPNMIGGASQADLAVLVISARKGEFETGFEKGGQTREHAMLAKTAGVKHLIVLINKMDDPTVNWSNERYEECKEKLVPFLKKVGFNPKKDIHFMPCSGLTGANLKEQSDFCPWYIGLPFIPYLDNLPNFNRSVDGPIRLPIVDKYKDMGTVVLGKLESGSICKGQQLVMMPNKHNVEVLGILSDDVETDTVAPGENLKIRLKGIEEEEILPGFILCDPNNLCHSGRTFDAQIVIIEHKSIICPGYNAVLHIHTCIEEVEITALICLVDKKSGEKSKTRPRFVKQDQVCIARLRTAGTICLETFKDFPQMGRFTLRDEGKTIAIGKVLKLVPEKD
T1 sequence (Q96SW2 whole entry): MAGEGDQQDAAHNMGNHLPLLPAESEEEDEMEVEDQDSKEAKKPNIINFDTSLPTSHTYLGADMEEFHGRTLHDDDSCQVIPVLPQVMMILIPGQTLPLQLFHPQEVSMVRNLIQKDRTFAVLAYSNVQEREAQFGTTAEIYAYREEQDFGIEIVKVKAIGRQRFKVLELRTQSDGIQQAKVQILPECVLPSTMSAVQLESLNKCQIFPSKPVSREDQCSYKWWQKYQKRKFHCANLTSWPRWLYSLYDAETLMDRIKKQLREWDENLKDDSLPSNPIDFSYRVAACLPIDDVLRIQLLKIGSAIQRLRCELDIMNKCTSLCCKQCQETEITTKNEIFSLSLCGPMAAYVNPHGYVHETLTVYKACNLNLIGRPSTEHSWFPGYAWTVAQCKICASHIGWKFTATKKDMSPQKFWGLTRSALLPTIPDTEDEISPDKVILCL
T1 sequence (Q16531 whole entry partner): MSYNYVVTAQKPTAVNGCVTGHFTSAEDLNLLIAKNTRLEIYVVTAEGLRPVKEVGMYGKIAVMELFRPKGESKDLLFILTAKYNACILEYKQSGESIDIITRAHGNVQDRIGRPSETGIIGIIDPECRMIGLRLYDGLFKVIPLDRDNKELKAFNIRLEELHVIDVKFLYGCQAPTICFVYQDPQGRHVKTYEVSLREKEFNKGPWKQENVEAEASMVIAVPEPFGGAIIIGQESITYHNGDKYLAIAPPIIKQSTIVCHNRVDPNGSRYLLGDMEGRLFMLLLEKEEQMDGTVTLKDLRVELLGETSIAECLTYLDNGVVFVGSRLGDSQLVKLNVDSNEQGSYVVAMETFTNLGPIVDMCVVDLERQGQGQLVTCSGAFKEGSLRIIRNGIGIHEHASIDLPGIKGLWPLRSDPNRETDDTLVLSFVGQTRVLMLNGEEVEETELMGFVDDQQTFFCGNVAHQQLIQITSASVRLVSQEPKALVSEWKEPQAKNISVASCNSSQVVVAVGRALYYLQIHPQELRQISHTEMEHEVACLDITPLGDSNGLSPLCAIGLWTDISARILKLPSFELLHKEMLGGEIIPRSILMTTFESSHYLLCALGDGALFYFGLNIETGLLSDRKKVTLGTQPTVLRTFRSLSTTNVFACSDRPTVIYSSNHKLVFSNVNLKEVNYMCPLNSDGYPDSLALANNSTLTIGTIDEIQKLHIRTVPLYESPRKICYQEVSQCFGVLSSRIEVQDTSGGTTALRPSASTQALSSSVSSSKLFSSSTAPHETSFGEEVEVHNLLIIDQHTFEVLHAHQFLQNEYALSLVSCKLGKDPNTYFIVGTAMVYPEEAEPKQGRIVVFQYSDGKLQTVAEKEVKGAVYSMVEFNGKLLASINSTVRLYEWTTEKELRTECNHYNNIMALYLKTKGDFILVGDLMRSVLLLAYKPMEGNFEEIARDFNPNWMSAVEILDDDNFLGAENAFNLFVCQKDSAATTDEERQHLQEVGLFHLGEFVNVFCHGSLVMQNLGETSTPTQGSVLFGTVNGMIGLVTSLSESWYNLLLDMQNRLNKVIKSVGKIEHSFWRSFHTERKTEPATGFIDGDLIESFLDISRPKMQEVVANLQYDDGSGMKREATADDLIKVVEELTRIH
Procedure: KG-1 cells were grown in an IMDM culture medium (containing 20% FBS). After centrifugation and counting, the cell concentration was adjusted. The cells were plated onto 6-well plates at 10^6 cells/well, with 1350 μL per well. 150 μL of DMSO and the test compounds of the present disclosure (compound concentration: 200 nM) were added. The plates were incubated in an incubator at 37° C. with 5% CO2 for 4 h. The cells were centrifuged, and the culture medium was discarded. PBS was added to wash the cells and then discarded. Whole cell lysates were prepared using a protease inhibitor cocktail (100×, Fude Biological), a protein phosphatase inhibitor cocktail (100×, Fude Biological), Super Nuclease (Beyotime), and a high-intensity RIPA lysis buffer (Thermo Fisher) and placed on ice for 30 min. After centrifugation, the cell debris precipitates were discarded, and the whole cell lysate supernatants were collected and transferred to new centrifuge tubes. After a BCA protein assay, samples were prepared using a 5× loading buffer (Thermo Fisher). The samples were subjected to protein electrophoresis separation in a 4-20% precast gel (SDS-PAGE gel), transferred to a PVDF membrane, blocked with 5% NFDM/TBST at room temperature for 1 h, incubated overnight with primary antibodies at 4° C., and incubated with a secondary antibody at room temperature for 2 h the next day. Signals were detected using a MINICHEMITM imaging system.
• Anti-GSPT1: Abcam ab234433 • Anti-beta actin: Fude Biological FD0060
• Anti-rabbit peroxidase-linked secondary antibody: Fude Biological FDG007
The degradation effects of the compounds on GSPT1 protein are shown in Table 1, where A represents a GSPT1 protein degradation percentage of no less than 70%, B represents a degradation percentage of less than 70% but no less than 30%, and C represents a degradation percentage of less than 30%.

KG-1 cells = test: Antiproliferative activity against KG-1 cells (CCK8); format: cell-based; settings: Homo sapiens, 72 h incubation, CCK8 method
Procedure: KG-1 cells in the logarithmic growth phase were diluted in a culture medium (RPMI+10% FBS) and plated onto 96-well plates at 5000 cells/well, and the plates were incubated in an incubator at 37° C. with 5% CO2 for 24 h. 10 mM stock solutions of the test compounds of the present disclosure in DMSO were prepared and diluted with the culture medium to set 9 concentration gradients. 3 replicate wells were set for each concentration. After compound addition, the plates were incubated in an incubator at 37° C. with 5% CO2 for 72 h. The cell proliferation was assessed using the CCK8 method. The cell growth inhibition IC50 values of the compounds were determined using an enzyme labeling method. The IC50 values were calculated using GraphPad Prism 7 software.
The antiproliferative activity of the compounds against KG-1 cells is shown in Table 2, where A represents IC50≤30 nM, B represents 30<IC50≤300 nM, and C represents IC50>300 nM.

| SMILES | inhibition at 0.2 µM (GSPT1 protein) [%] | IC50 (KG-1 cells) [nM] |
| --- | --- | --- |
| COc1cccc2c1OCC(C(=O)NCc1ccc3c(=O)n(C4CCC(=O)NC4=O)ncc3c1)=C2 (stereo not drawn) [Compound T-6, N-((2-(2,6-Dioxopiperidin-3-yl)-1-oxo-1,2-dihydrophthalazin-6-yl)methyl)-8-methoxy-2H-chromene-3-carboxamide] | 30 to 70 | 30 to 300 |
| COc1ccc2c(c1)C=C(C(=O)NCc1ccc3c(=O)n(C4CCC(=O)NC4=O)ncc3c1)CO2 (stereo not drawn) [Compound T-8, N-((2-(2,6-Dioxopiperidin-3-yl)-1-oxo-1,2-dihydrophthalazin-6-yl)methyl)-6-methoxy-2H-chromene-3-carboxamide] | 30 to 70 | 30 to 300 |
| O=C1CCC(n2ncc3cc(CNC(=O)C4=Cc5cccc(OC(F)(F)F)c5OC4)ccc3c2=O)C(=O)N1 (stereo not drawn) [Compound T-9, N-((2-(2,6-Dioxopiperidin-3-yl)-1-oxo-1,2-dihydrophthalazin-6-yl)methyl)-8-(trifluoromethoxy)-2H-chromene-3-carboxamide] | 30 to 70 | ≤ 30 |
| O=C1CCC(n2ncc3cc(CNC(=O)C4=Cc5cc(OC(F)(F)F)ccc5OC4)ccc3c2=O)C(=O)N1 (stereo not drawn) [Compound T-10, N-((2-(2,6-Dioxopiperidin-3-yl)-1-oxo-1,2-dihydrophthalazin-6-yl)methyl)-6-(trifluoromethoxy)-2H-chromene-3-carboxamide] | ≥ 70 | ≤ 30 |
| C=Cc1ccc2c(c1)C=C(C(=O)NCc1ccc3c(=O)n(C4CCC(=O)NC4=O)ncc3c1)CO2 (stereo not drawn) [Compound T-16, N-((2-(2,6-Dioxopiperidin-3-yl)-1-oxo-1,2-dihydrophthalazin-6-yl)methyl)-6-vinyl-2H-chromene-3-carboxamide] | < 30 | > 300 |
| CC(C)(C)c1ccc2c(c1)C=C(C(=O)NCc1ccc3c(=O)n(C4CCC(=O)NC4=O)ncc3c1)CO2 (stereo not drawn) [Compound T-17, 6-(tert-Butyl)-N-((2-(2,6-dioxopiperidin-3-yl)-1-oxo-1,2-dihydrophthalazin-6-yl)methyl)-2H-chromene-3-carboxamide] | ≥ 70 | ≤ 30 |
| O=C1CCC(n2ncc3cc(CNC(=O)C4=Cc5cc(-c6ccccc6)ccc5OC4)ccc3c2=O)C(=O)N1 (stereo not drawn) [Compound T-18, N-((2-(2,6-Dioxopiperidin-3-yl)-1-oxo-1,2-dihydrophthalazin-6-yl)methyl)-6-phenyl-2H-chromene-3-carboxamide] | ≥ 70 | ≤ 30 |
| O=C1CCC(n2ncc3cc(CNC(=O)C4=Cc5cc(F)cc(F)c5OC4)ccc3c2=O)C(=O)N1 (stereo not drawn) [Compound T-19, N-((2-(2,6-Dioxopiperidin-3-yl)-1-oxo-1,2-dihydrophthalazin-6-yl)methyl)-6,8-difluoro-2H-chromene-3-carboxamide] | 30 to 70 | 30 to 300 |
| Cc1cc2c(cc1Cl)C=C(C(=O)NCc1ccc3c(=O)n(C4CCC(=O)NC4=O)ncc3c1)CO2 (stereo not drawn) [Compound T-20, 6-Chloro-N-((2-(2,6-dioxopiperidin-3-yl)-1-oxo-1,2-dihydrophthalazin-6-yl)methyl)-7-methyl-2H-chromene-3-carboxamide] | 30 to 70 | 30 to 300 |
| O=C1CCC(n2ncc3cc(CNC(=O)C4COc5ccccc5C4)ccc3c2=O)C(=O)N1 (stereo not drawn) [Compound T-21, N-((2-(2,6-Dioxopiperidin-3-yl)-1-oxo-1,2-dihydrophthalazin-6-yl)methyl) chromane-3-carboxamide] | 30 to 70 | 30 to 300 |
| O=C1CCC(n2ncc3cc(CNC(=O)C4COc5ccc(F)cc5C4)ccc3c2=O)C(=O)N1 (stereo not drawn) [Compound T-22, N-((2-(2,6-Dioxopiperidin-3-yl)-1-oxo-1,2-dihydrophthalazin-6-yl)methyl)-6-fluorochromane-3-carboxamide] | 30 to 70 | ≤ 30 |
| O=C1CCC(n2ncc3cc(CNC(=O)C4COc5ccc(OC(F)(F)F)cc5C4)ccc3c2=O)C(=O)N1 (stereo not drawn) [Compound T-23, N-((2-(2,6-Dioxopiperidin-3-yl)-1-oxo-1,2-dihydrophthalazin-6-yl)methyl)-6-(trifluoromethoxy) chromane-3-carboxamide] | ≥ 70 | ≤ 30 |
| O=C1CCC(n2ncc3cc(CNC(=O)C4CNc5ccccc5C4)ccc3c2=O)C(=O)N1 (stereo not drawn) [Compound T-24, N-((2-(2,6-Dioxopiperidin-3-yl)-1-oxo-1,2-dihydrophthalazin-6-yl)methyl)-1,2,3,4-tetrahydroquinoline-3-carboxamide] | ≥ 70 | 30 to 300 |

The next lines start with results.

| inhibition at 0.2 µM (GSPT1 protein) [%] | SMILES | IC50 (KG-1 cells) [nM] |
| --- | --- | --- |
| 30 to 70 | O=C1CCC(n2ncc3cc(CNC(=O)C4=Cc5ccccc5OC4)ccc3c2=O)C(=O)N1 (stereo not drawn) [Compound T-1, N-((2-(2,6-Dioxopiperidin-3-yl)-1-oxo-1,2-dihydrophthalazin-6-yl)methyl)-2H-chromene-3-carboxamide] | 30 to 300 |
| ≥ 70 | O=C1CCC(n2ncc3cc(CNC(=O)C4=Cc5c(F)cccc5OC4)ccc3c2=O)C(=O)N1 (stereo not drawn) [Compound T-2, N-((2-(2,6-Dioxopiperidin-3-yl)-1-oxo-1,2-dihydrophthalazin-6-yl)methyl)-5-fluoro-2H-chromene-3-carboxamide] | ≤ 30 |
| 30 to 70 | O=C1CCC(n2ncc3cc(CNC(=O)C4=Cc5cc(F)ccc5OC4)ccc3c2=O)C(=O)N1 (stereo not drawn) [Compound T-3, N-((2-(2,6-Dioxopiperidin-3-yl)-1-oxo-1,2-dihydrophthalazin-6-yl)methyl)-6-fluoro-2H-chromene-3-carboxamide] | 30 to 300 |
| 30 to 70 | O=C1CCC(n2ncc3cc(CNC(=O)C4=Cc5ccc(F)cc5OC4)ccc3c2=O)C(=O)N1 (stereo not drawn) [Compound T-4, N-((2-(2,6-Dioxopiperidin-3-yl)-1-oxo-1,2-dihydrophthalazin-6-yl)methyl)-7-fluoro-2H-chromene-3-carboxamide] | 30 to 300 |
| 30 to 70 | O=C1CCC(n2ncc3cc(CNC(=O)C4=Cc5cccc(F)c5OC4)ccc3c2=O)C(=O)N1 (stereo not drawn) [Compound T-5, N-((2-(2,6-Dioxopiperidin-3-yl)-1-oxo-1,2-dihydrophthalazin-6-yl)methyl)-8-fluoro-2H-chromene-3-carboxamide] | ≤ 30 |
| ≥ 70 | COc1cccc2c1C=C(C(=O)NCc1ccc3c(=O)n(C4CCC(=O)NC4=O)ncc3c1)CO2 (stereo not drawn) [Compound T-7, N-((2-(2,6-Dioxopiperidin-3-yl)-1-oxo-1,2-dihydrophthalazin-6-yl)methyl)-5-methoxy-2H-chromene-3-carboxamide] | ≤ 30 |
| 30 to 70 | Cc1cccc2c1OCC(C(=O)NCc1ccc3c(=O)n(C4CCC(=O)NC4=O)ncc3c1)=C2 (stereo not drawn) [Compound T-11, N-((2-(2,6-Dioxopiperidin-3-yl)-1-oxo-1,2-dihydrophthalazin-6-yl)methyl)-8-methyl-2H-chromene-3-carboxamide] | 30 to 300 |
| 30 to 70 | Cc1ccc2c(c1)C=C(C(=O)NCc1ccc3c(=O)n(C4CCC(=O)NC4=O)ncc3c1)CO2 (stereo not drawn) [Compound T-12, N-((2-(2,6-Dioxopiperidin-3-yl)-1-oxo-1,2-dihydrophthalazin-6-yl)methyl)-6-methyl-2H-chromene-3-carboxamide] | 30 to 300 |
| 30 to 70 | O=C1CCC(n2ncc3cc(CNC(=O)C4=Cc5cc(Cl)ccc5OC4)ccc3c2=O)C(=O)N1 (stereo not drawn) [Compound T-13, 6-Chloro-N-((2-(2,6-dioxopiperidin-3-yl)-1-oxo-1,2-dihydrophthalazin-6-yl)methyl)-2H-chromene-3-carboxamide] | 30 to 300 |
| 30 to 70 | O=C1CCC(n2ncc3cc(CNC(=O)C4=Cc5cc(Br)ccc5OC4)ccc3c2=O)C(=O)N1 (stereo not drawn) [Compound T-14, 6-Bromo-N-((2-(2,6-dioxopiperidin-3-yl)-1-oxo-1,2-dihydrophthalazin-6-yl)methyl)-2H-chromene-3-carboxamide] | 30 to 300 |
| ≥ 70 | O=C1CCC(n2ncc3cc(CNC(=O)C4=Cc5c(cccc5C(F)(F)F)OC4)ccc3c2=O)C(=O)N1 (stereo not drawn) [Compound T-15, N-((2-(2,6-Dioxopiperidin-3-yl)-1-oxo-1,2-dihydrophthalazin-6-yl)methyl)-5-(trifluoromethyl)-2H-chromene-3-carboxamide] | ≤ 30 |
